{"source": "patent US12109177B2", "about": "(priority 2021, dated 2024)", "key": {"[1]": {"system": "VX2 brain tumor", "conditions": "rabbit, in vivo"}, "[2]": {"system": "blood neutrophils", "conditions": "rabbit, in vivo"}, "[3]": {"system": "blood neutrophils", "conditions": "mouse, in vivo"}, "[4]": {"system": "flank GL261 tumor", "conditions": "in vivo"}}, "note": "Entries after “also recorded” stand apart in the source; their conditions may differ. Like-named read-outs stand apart in the source and are kept apart here.", "data": [{"smiles": "O=P1(N(CCCl)CCCl)NCCCO1", "note": "(stereo not drawn) [CPA, cyclophosphamide]", "values": [{"measurement": "long-term survivors", "setting": "[1]", "value": "without any long-term survivor"}, {"measurement": "blood neutrophil count", "setting": "[2]", "value": "significant neutrophil suppression"}]}, {"smiles": "NC(=O)NO", "note": "[HU, hydroxyurea]", "values": [{"measurement": "blood neutrophil count", "setting": "[3]", "value": "greatly suppressed the neutrophil levels; also recorded: drastically reduced the neutrophil counts"}, {"measurement": "other blood cell counts", "setting": "[3]", "value": "also affected in various degrees"}, {"measurement": "lymphocyte count", "setting": "[3]; ip", "value": "significant drop of lymphocytes"}, {"measurement": "deaths from tumor regrowth", "setting": "[1]", "value": "one"}, {"measurement": "intratumoral accumulation of neutrophils", "setting": "[1]", "value": "effective in suppressing the intratumoral accumulation of neutrophils"}, {"measurement": "long-term survivors", "setting": "[1]", "value": 8}, {"measurement": "mice died of treatment-related (immediate) toxicity", "setting": "[4]; female, C57BL6, mouse", "value": "2/12"}, {"measurement": "mice cured (total tumor clearance, absence of any tumor after 3 weeks)", "setting": "[4]; mouse", "value": "9/12"}, {"measurement": "mice with partial tumor clearance (initial reduction, later regrowth)", "setting": "[4]; mouse", "value": "1/12"}, {"measurement": "therapeutic effect of agent alone", "setting": "[4]; mouse", "value": "did not show any noticeable therapeutic effects"}, {"measurement": "lymphocyte counts", "setting": "[2]", "value": "not significantly affected"}, {"measurement": "other blood cell types", "setting": "[2]", "value": "has not affected other blood cell types significantly"}, {"measurement": "time to neutrophil count rebound after spore injection", "setting": "[2]", "value": "at least 3 days"}]}]}
